# Measured values from patent US20050060764A1, “Mouse model for bone metabolism” (priority 2003, published 2005).
# Strand notation (5' to 3'): a small letter for the sugar, then the base; units joined by * are phosphorothioate-linked, units joined directly phosphodiester-linked; [ ] holds rarer units or linkages, { } end groups; capitals alone tell only the bases. e = 2'-O-(2-methoxyethyl) (MOE); [5mC] = 5-methylcytosine; d = 2'-deoxy (DNA)
# System: mouse RANKL mRNA
# Experiment: Antisense inhibition of mouse RANKL mRNA levels in C2C12 cells, quantitative real-time PCR (Table 2)
# Type: cell-based
# Parameters: concentration or dose not given beside the values
# Details: averages from three experiments
# Experimental: Cells were seeded into 24-well plates (Falcon-353047 at a density of ˜10,000 cells/cm^2 for use in antisense oligonucleotide transfection.
# Cells are treated and data are obtained in triplicate. […] Cells were harvested 16-24 hours after oligonucleotide treatment.
# PCR reagents were obtained from Invitrogen Corporation, (Carlsbad, Calif.).
# Probes and primers to mouse RANKL were designed to hybridize to a mouse RANKL sequence, using published sequence information (GenBank accession number AF013170.1, incorporated herein as SEQ ID NO:ll). For mouse RANKL the PCR primers were: • forward primer: […] (SEQ ID NO:12) • reverse primer: […] (SEQ ID NO: 13) and • the PCR probe was: FAM-[…]-TAMRA (SEQ ID NO: 14) where FAM is the fluorescent reporter dye and TAMRA is the quencher dye. For mouse GAPDH the PCR primers were: • forward primer: […](SEQ ID NO:15) • reverse primer: […](SEQ ID NO:16) and the • PCR probe was: 5′ JOE-[…]-TAMRA 3′ (SEQ ID NO: 17) where JOE is the fluorescent reporter dye and TAMRA is the quencher dye.
# In accordance with the present invention, a second series of antisense compounds was designed to target different regions of the mouse RANKL RNA, using published sequences (GenBank accession number AF013170.1, incorporated herein as SEQ ID NO: 11). […] All cytidine residues are 5-methylcytidines. […] If present “N.D.” indicates “no data”.
row,Substance,% INHIB (inhibition of mouse RANKL mRNA levels)
1,180826 (antisense eT*eA*e[5mC]*eA*eA*dA*dG*dT*dG*d[5mC]*dA*d[5mC]*d[5mC]*dA*dG*eT*eT*eA*eA*eA) [compound 180826],33%
2,180827 (antisense eA*eG*e[5mC]*eT*eA*d[5mC]*dG*dA*dG*dT*dA*d[5mC]*d[5mC]*dT*dT*e[5mC]*eA*eG*eG*eG) [compound 180827],54%
3,180829 (antisense eA*eA*eG*eG*e[5mC]*dA*d[5mC]*d[5mC]*dT*dG*dG*dT*dG*dA*d[5mC]*e[5mC]*eA*eA*e[5mC]*eA) [compound 180829],23%
4,180830 (antisense eT*eG*eA*eA*eA*dG*dG*d[5mC]*dA*d[5mC]*d[5mC]*dT*dG*dG*dT*eG*eA*e[5mC]*e[5mC]*eA) [compound 180830],5%
5,180831 (antisense e[5mC]*e[5mC]*eT*eG*eA*d[5mC]*dA*dG*dA*dT*dT*dT*d[5mC]*dA*dG*eT*eA*eG*e[5mC]*e[5mC]) [compound 180831],54%
6,180832 (antisense eG*eG*eA*eA*eA*dA*dA*dA*dA*dA*dG*dA*dA*dA*d[5mC]*e[5mC]*eA*eA*eA*eA) [compound 180832],0%
7,180833 (antisense e[5mC]*eA*eG*eA*eG*dA*d[5mC]*dA*dA*dT*dG*d[5mC]*dT*dT*dT*eT*eA*eT*eT*eG) [compound 180833],22%
8,"aacatggagcgggaggcggc (antisense eA*eA*e[5mC]*eA*eT*dG*dG*dA*dG*d[5mC]*dG*dG*dG*dA*dG*eG*e[5mC]*eG*eG*e[5mC]) [ISIS 180801, 2′-MOE gapmer targeted to mouse RANKL]",at least 40%
9,"acatggagcgggaggcggcg (antisense eA*e[5mC]*eA*eT*eG*dG*dA*dG*d[5mC]*dG*dG*dG*dA*dG*dG*e[5mC]*eG*eG*e[5mC]*eG) [ISIS 180800, 2′-MOE gapmer targeted to mouse RANKL]",at least 40%
10,"agcagactccgccacggccc (antisense eA*eG*e[5mC]*eA*eG*dA*d[5mC]*dT*d[5mC]*d[5mC]*dG*d[5mC]*d[5mC]*dA*d[5mC]*eG*eG*e[5mC]*e[5mC]*e[5mC]) [ISIS 180790, 2′-MOE gapmer targeted to mouse RANKL]",at least 40%
11,"agctacgagtaccttcaggg (antisense eA*eG*e[5mC]*eT*eA*d[5mC]*dG*dA*dG*dT*dA*d[5mC]*d[5mC]*dT*dT*e[5mC]*eA*eG*eG*eG) [ISIS 180827, 2′-MOE gapmer targeted to mouse RANKL]",at least 40%
12,"agctgaagatagtctgtagg (antisense eA*eG*e[5mC]*eT*eG*dA*dA*dG*dA*dT*dA*dG*dT*d[5mC]*dT*eG*eT*eA*eG*eG) [ISIS 180808, 2′-MOE gapmer targeted to mouse RANKL]",at least 40%
13,"atgctaatttcttcaccagc (antisense eA*eT*eG*e[5mC]*eT*dA*dA*dT*dT*dT*d[5mC]*dT*dT*d[5mC]*dA*e[5mC]*e[5mC]*eA*eG*e[5mC]) [ISIS 180811, 2′-MOE gapmer targeted to mouse RANKL]",at least 40%
14,"atgttccacgaaatgagtct (antisense eA*eT*eG*eT*eT*d[5mC]*d[5mC]*dA*d[5mC]*dG*dA*dA*dA*dT*dG*eA*eG*eT*e[5mC]*eT) [ISIS 180813, 2′-MOE gapmer targeted to mouse RANKL]",at least 40%
15,"cagttccttctgcacggccc (antisense e[5mC]*eA*eG*eT*eT*d[5mC]*d[5mC]*dT*dT*d[5mC]*dT*dG*d[5mC]*dA*d[5mC]*eG*eG*e[5mC]*e[5mC]*e[5mC]) [ISIS 180804, 2′-MOE gapmer targeted to mouse RANKL]",at least 40%
16,"ccgccgagcagactccgcca (antisense e[5mC]*e[5mC]*eG*e[5mC]*e[5mC]*dG*dA*dG*d[5mC]*dA*dG*dA*d[5mC]*dT*d[5mC]*e[5mC]*eG*e[5mC]*e[5mC]*eA) [ISIS 180791, 2′-MOE gapmer targeted to mouse RANKL]",at least 40%

row,Substance,% INHIB (inhibition of mouse RANKL mRNA levels)
1,"cctgacagatttcagtagcc (antisense e[5mC]*e[5mC]*eT*eG*eA*d[5mC]*dA*dG*dA*dT*dT*dT*d[5mC]*dA*dG*eT*eA*eG*e[5mC]*e[5mC]) [ISIS 180831, 2′-MOE gapmer targeted to mouse RANKL]",at least 40%
2,"cgggaggeggcgggtggcgg (antisense e[5mC]*eG*eG*eG*eA*dG*dG*d[5mC]*dG*dG*d[5mC]*dG*dG*dG*dT*eG*eG*e[5mC]*eG*eG) [ISIS 180799, 2′-MOE gapmer targeted to mouse RANKL]",at least 40%
3,"cttatttgcaggtcccagcg (antisense e[5mC]*eT*eT*eA*eT*dT*dT*dG*d[5mC]*dA*dG*dG*dT*d[5mC]*d[5mC]*e[5mC]*eA*eG*e[5mC]*eG) [ISIS 180820, 2′-MOE gapmer targeted to mouse RANKL]",at least 40%
4,"gcatcggaatacctctccca (antisense eG*e[5mC]*eA*eT*e[5mC]*dG*dG*dA*dA*dT*dA*d[5mC]*d[5mC]*dT*d[5mC]*eT*e[5mC]*e[5mC]*e[5mC]*eA) [ISIS 180817, 2′-MOE gapmer targeted to mouse RANKL]",at least 40%
5,"gccctgctccgcgatcgttc (antisense eG*e[5mC]*e[5mC]*e[5mC]*eT*dG*d[5mC]*dT*d[5mC]*d[5mC]*dG*d[5mC]*dG*dA*dT*e[5mC]*eG*eT*eT*e[5mC]) [ISIS 180793, 2′-MOE gapmer targeted to mouse RANKL]",at least 40%
6,"gctggcccggcgcatggcgc (antisense eG*e[5mC]*eT*eG*eG*d[5mC]*d[5mC]*d[5mC]*dG*dG*d[5mC]*dG*d[5mC]*dA*dT*eG*eG*e[5mC]*eG*e[5mC]) [ISIS 180795, 2′-MOE gapmer targeted to mouse RANKL]",at least 40%
7,"ggcttgcctcgctgggccac (antisense eG*eG*e[5mC]*eT*eT*dG*d[5mC]*d[5mC]*dT*d[5mC]*dG*d[5mC]*dT*dG*dG*eG*e[5mC]*e[5mC]*eA*e[5mC]) [ISIS 180805, 2′-MOE gapmer targeted to mouse RANKL]",at least 40%
8,"gttcacaaaggtcctggcag (antisense eG*eT*eT*e[5mC]*eA*d[5mC]*dA*dA*dA*dG*dG*dT*d[5mC]*d[5mC]*dT*eG*eG*e[5mC]*eA*eG) [ISIS 180788, 2′-MOE gapmer targeted to mouse RANKL]",at least 40%
9,"tcagaattgcccgaccagtt (antisense eT*e[5mC]*eA*eG*eA*dA*dT*dT*dG*d[5mC]*d[5mC]*d[5mC]*dG*dA*d[5mC]*e[5mC]*eA*eG*eT*eT) [ISIS 180810, 2′-MOE gapmer targeted to mouse RANKL]",at least 40%
10,"tcagtggcacatgtccaggg (antisense eT*e[5mC]*eA*eG*eT*dG*dG*d[5mC]*dA*d[5mC]*dA*dT*dG*dT*d[5mC]*e[5mC]*eA*eG*eG*eG) [ISIS 180818, 2′-MOE gapmer targeted to mouse RANKL]",at least 40%
11,"tccggatccagcagggaagg (antisense eT*e[5mC]*e[5mC]*eG*eG*dA*dT*d[5mC]*d[5mC]*dA*dG*d[5mC]*dA*dG*dG*eG*eA*eA*eG*eG) [ISIS 180812, 2′-MOE gapmer targeted to mouse RANKL]",at least 40%
12,"tcggctggcccggcgcatgg (antisense eT*e[5mC]*eG*eG*e[5mC]*dT*dG*dG*d[5mC]*d[5mC]*d[5mC]*dG*dG*d[5mC]*dG*e[5mC]*eA*eT*eG*eG) [ISIS 180796, 2′-MOE gapmer targeted to mouse RANKL]",at least 40%
13,"tctcggctggcccggcgcat (antisense eT*e[5mC]*eT*e[5mC]*eG*dG*d[5mC]*dT*dG*dG*d[5mC]*d[5mC]*d[5mC]*dG*dG*e[5mC]*eG*e[5mC]*eA*eT) [ISIS 180797, 2′-MOE gapmer targeted to mouse RANKL]",at least 40%
14,"tcttcactctccagagtcga (antisense eT*e[5mC]*eT*eT*e[5mC]*dA*d[5mC]*dT*d[5mC]*dT*d[5mC]*d[5mC]*dA*dG*dA*eG*eT*e[5mC]*eG*eA) [ISIS 180803, 2′-MOE gapmer targeted to mouse RANKL]",at least 40%
15,"tgctccgcgatcgttctctc (antisense eT*eG*e[5mC]*eT*e[5mC]*d[5mC]*dG*d[5mC]*dG*dA*dT*d[5mC]*dG*dT*dT*e[5mC]*eT*e[5mC]*eT*e[5mC]) [ISIS 180792, 2′-MOE gapmer targeted to mouse RANKL]",at least 40%
16,"tttattttgcttgcatagtt (antisense eT*eT*eT*eA*eT*dT*dT*dT*dG*d[5mC]*dT*dT*dG*d[5mC]*dA*eT*eA*eG*eT*eT) [ISIS 180828, 2′-MOE gapmer targeted to mouse RANKL]",at least 40%
